What was measured:
[1] = Dispersion test in USP dissolution bath (DLS Nicomp, polarized light microscopy); format: physicochemical
Experimental: A dispersion test was performed on the miscible formulations in a USP dissolution bath. 830 μL of miscible mixture was introduced in 250 mL of purified water at 37° C. under agitation with a paddle at 100 rpm. Performance criteria were: ease of emulsification, homogeneity and fineness of the dispersion. The fineness of the dispersion was assayed by dynamic light scattering (DLS, Particle Sizing Systems Nicomp). Photomicrographs were obtained of crystals observed during light microscopic observation following 30 minutes of dispersion.
The dispersion of the formulation in 250 mL of water (equivalent to the FDA glass of water) was followed for observance of the precipitation of DIM after 30 minutes and was checked by polarized light microscopy. Study of Formulation “D” lead to the formation of a fine and turbid emulsion with a crystal formation showing particle size distribution of 283±66 nm (volume). […] The advantageous reduction in crystal size for Formulation N compared to Formulation D is attributed, at least in part, to a contribution from Peppermint Oil and low concentration of Polysorbate 80 (see FIG. 4, A, B, and C).

[2] = Single dose human oral bioavailability study; format: in vivo; settings: single oral dose 300 mg DIM, healthy individuals, mean
Experimental: In Part I of the Study, a treatment group was administered a 300 mg dose of DIM from BR-DIM or a 300 mg dose of DIM from crystalline DIM on the first study day, followed by crossover to the other DIM formulation on the second study day, at least 14 days following the first treatment. 3 subjects were given crystalline DIM, 4 subjects were given BR-DIM.
In Part II of the Study, five individuals, four of whom participated in Part I of the Study, were administered a 300 mg dose of DIM from DIM SMEDDS Formulation D. Testing of DIM SMEDDS formula D took place on one day with 5 subjects. The subjects were all healthy, adult volunteers, both male and female, not consuming DIM containing supplements and in a fasting state on study days. […]
The concentrations of DIM in human plasma samples were determined by a validated high-performance liquid chromatography with tandem mass spectrometry (LC-MS/MS) method. […] The analytes were monitored by a Waters Micromass triple quadrupole mass spectrometer (Milford, Mass., USA) using an electrospray probe in the positive ionization mode operating at a cone voltage of 23V for DIM and 13V for the internal standard zileuton. […] The transitions at 129.9>76.8 and 237.1>161.1 were monitored for DIM and zileuton, respectively. […] The lower limit of quantitation (LLOQ) was determined at 10 ng/mL for DIM in human plasma. […]

[3] = DIM solubility in excipients (incremental addition, microscopic observation); format: physicochemical; settings: olive oil or sunflower oil
Experimental: The first step in this development process was the testing of a variety of excipients chosen as potentially active in solubilizing DIM. […] The method involved weighing of approximately 2 grams of each of the liquid excipients into a small vial. Subsequently, a small amount of DIM was added and the mixture was shaken.
The method involved weighing of approximately 2 grams of each of the liquid excipients into a small vial. Subsequently, a small amount of DIM was added and the mixture was shaken. […] Continued testing of acceptable oil solvents for, e.g., nutritional supplement, self-emulsifying formulations using DIM as a representative DIM-related indole active ingredient included testing of the following oils: […]

[4] = Shake-flask determination of maximum solubility of DIM; format: physicochemical; settings: HPLC
Experimental: The solubility was determined as described by Lindenberg et al., 2004, Eur J Pharm Biopharm. 58(2):265-78. […] The vials were incubated at 37±0.5° C. while shaking on a “Polymax 1040” orbital shaker (Heidolph, Schwabach). The samples of the solutions were taken after 4 or 24 hours by pressing the Uniprep® plunger down, diluted as appropriate, and the concentration of DIM was analyzed by HPLC, as described below. The measurements were done in triplicate. The maximum concentration of DIM in aqueous media used in this study was 0.6 μg/ml. […]

[5] = source not stated; cited from earlier work

Compound: c1ccc2c(Cc3c[nH]c4ccccc34)c[nH]c2c1 [Crystalline DIM, 3,3′-diindolylmethane]
- Particle Size Diameter after Dispersion in Water (nm) ([1]; Malvern Mastersizer, DIM as supplied by BioResponse): 3,010^1 nm
- DIM Crystal Characteristics In Water Dispersion ([1]; polarized light microscopy after 30 minutes): Large
- Cmax [2]: 18.1 ng/mL

Compound: c1ccc2c(Cc3c[nH]c4ccccc34)c[nH]c2c1 [DIM, 3,3′-diindolylmethane]
- ability to dissolve DIM [3]: very low
- concentration of DIM in Octanol [4]: 2,300 μg/ml

Compound: Vitamin D
- Log P of 2nd API drug [5]: 7.5

Compound: CC(C)=CCC/C(C)=C/CC/C(C)=C/CC/C(C)=C/CC1=C(C)C(=O)c2ccccc2C1=O [menaquinone-4]
- Log P of 2nd API drug [5]: 10-12

Reference: US10799479B2, “Self-emulsifying formulations of DIM-related indoles” (BioResponse, L.L.C., priority 2015, dated 2020)
